Experimental data taken from US10662210B2, “Compositions and methods comprising osmium for the treatment of cancers” (Massachusetts Institute of Technology, priority 2014, dated 2020).

Key:
[1] = tested on: p53, p21 and BAX in A2780 cells; assay: Immunoblotting analysis, p53 pathway; format: cell-based, human; settings: for p53 expression: vs untreated cells
Protocol: Having established the intracellular targets of 2 and 4, the role of p53, a cell cycle and apoptosis regulator, in the cellular responses evoked was investigated. […] Therefore, p53 played a fundamental role in coordinating the cellular response to 2-induced DNA damage. […] (FIG. 13). […] To relate p53 to potency, cytotoxicity studies were conducted in the presence of p53 inhibitors pifithrin-α and pifithrin-μ. (both 10 μM). […] The IC50 values of compound 2 in the absence and presence of p53 inhibitor pifithrin-μ after 72 hours incubation was about 2 μM and about 30 μM, respectively.
A2780 cells (5×10^5 cells) were incubated with the osmium complexes (concentrations, μM) for 72 h at 37° C. Cells were washed with PBS, scraped into SDS-PAGE loading buffer (64 mM Tris-HCl (pH6.8)/9.6% glycerol/2% SDS/5% β-mercaptoethanol/0.01% Bromophenol Blue), and incubated at 95° C. for 10 min. Whole cell lysates were resolved by 4-20% sodium dodecylsulphate polyacylamide gel electrophoresis (SDS-PAGE; 200 V for 25 min) followed by electro transfer to polyvinylidene difluoride membrane, PVDF (350 mA for 1 h). Membranes were blocked in 5% (w/v) non-fat milk in PBST (PBS/0.1% Tween 20) and incubated with the appropriate primary antibodies (Cell Signalling Technology and Santa Cruz). After incubation with horseradish peroxidase-conjugated secondary antibodies (Cell Signalling Technology), immune complexes were detected with the ECL detection reagent (BioRad) and analyzed using an Alpha Innotech ChemiImager™ 5500 fitted with a chemiluminescence filter.

A2780 cells = assay: DNA flow cytometric cell cycle analysis; format: cell-based, human
Protocol: After 24 hours untreated A2780 cells had the following distribution: G1: 73.4%, S: 21.7%, and G2/M: 5.0%. After 48 hours untreated A2780 cells had the following distribution: G1: 75.1%, S: 19.6%, and G2/M: 5.2%. After 72 hours untreated had the following distribution: G1: 73.6%, S: 21.0%, and G2/M: 5.4%. After 24 hours A2780 cells treated with 2 had the following distribution: G1: 61.0%, S: 27.9%, and G2/M: 11.1%. After 48 hours A2780 cells treated with 2: G1: 61.8%, S: 19.0%, and G2/M: 19.1%. After 72 hours A2780 cells treated with 2 had the following distribution: G1: 57.3%, S: 23.3%, and G2/M: 19.4%. This property may be related to upregulation of p53 and phosphorylation of CHK1. Complex 4 induced relatively small perturbations to the cell cycle; changes in phase populations remained <5% even after a 72-hours incubation. After 24 hours untreated A2780 cells had the following distribution: G1: 73.7%, S: 23.1%, and G2/M: 3.3%. After 48 hours untreated A2780 cells had the following distribution: G1: 73.4%, S: 21.7%, and G2/M: 4.9%. After 72 hours untreated A2780 cells had the following distribution: G1: 79.7%, S: 19.4%, and G2/M: 0.9%. After 24 hours A2780 cells treated with 4 had the following distribution: G1: 70.9%, S: 24.8%, and G2/M: 4.6%. After 48 hours A2780 cells treated with 4 had the following distribution: G1: 71.9%, S: 18.3%, and G2/M: 9.8%. After 72 hours A2780 cells treated with 4 had the following distribution: G1: 70.3%, S: 24.4%, and G2/M: 5.3%.
In order to monitor the cell cycle, flow cytometry studies were carried out. A2780 cells were incubated with and without the test compounds for 24-72 h at 37° C. Studies on A549 cells under normal and starved (proliferating and non-proliferating) conditions were also carried out. Cells were harvested from adherent cultures by trypsinization. Following centrifugation at 1000 rpm for 5 min, cells were washed with PBS and then fixed with 70% ethanol in PBS. Fixed cells were collected by centrifugation at 2500 rpm for 3 min, washed with PBS and centrifuged as before. Cellular pellets were re-suspended in 50 μg/ml propidium iodide (Sigma) in PBS for nucleic acids staining and treated with 100 μg/ml RNaseA (Sigma). DNA content was measured on a FACSCalibur-HTS flow cytometer (BD Biosciences) using laser excitation at 488 nm and 20,000 events per sample were acquired. Cell cycle profiles were analysed using the ModFit software. For the apoptosis experiments, the Annexin V-FITC Early Apoptosis Detection Kit was used. The manufacture's protocol was followed to carry out this experiment. Briefly, untreated and treated cells (1×10^5) were suspended in 1× annexin binding buffer (96 μL) (10 mM HEPES, 140 mM NaCl, 2.5 mM CaCl2), pH 7.4), then 1 μL FITC annexin V and 12.5 μL PI (10 μg/mL) were added to each sample and incubated on ice for 15 min. After which more binding buffer (150 μL) was added while gently mixing. The samples were kept on ice prior to being read on the FACSCalibur-HTS flow cytometer (BD Biosciences) and 20,000 events per sample were acquired. Cell populations were analysed using the FlowJo software (Tree Star).

[2] = tested on: Eμ-Mycp19arf−/− lymphoma cells; assay: RNAi signatures, GFP competition assay; settings: for shChk2 log 2(RI) value / shp53 log 2(RI) value: LD80-90 concentration; for RNAi signature classification against reference set: probabilistic K-nearest neighbors
Excerpt: This RNAi-based methodology relied on a fluorescence competition assay involving lymphoma cells that were partially infected with one of eight distinct short hairpin RNAs (shRNAs). shRNA-bearing cells will either enrich or deplete relative to the uninfected population based on drug survival advantage or disadvantage conferred by a given shRNA. […] The signature of a novel compound was compared to those of a reference set of drugs using a probabilistic K-nearest neighbors algorithm to determine whether it belonged to a class in the reference set or a new category that was not represented in the reference set.
Compounds were dosed to achieve an LD80-90 in Eμ-Myc^p19arf−/− cells by propidium iodide exclusion as determined by FACS after a 48 h incubation. GFP enrichment/depletion was then determined by FACS at 72 h. […] All FACS was conducted using a FACScan (BD Biosciences).
Eμ-Myc^p19arf−/− lymphoma or p185+ BCR-Abl^p19arf−/− leukemia cells were infected with GFP-tagged shRNAs such that 15-25% of the population were GFP positive. An eighth of a million cells in 250 μL B-cell media (BCM) were then seeded into 24-well plates. For wells that would remain untreated as a control, only 1/16th of a million cells were seeded. Next, 250 μL of media containing the active agent was added to the cells. After 24 h, 300 μL of cells from untreated wells are removed and replaced by 300 μL fresh BCM. All wells then received 500 μL BCM before being placed by in the incubator for another 24 h. At 48 h, cells transduced with the control vector, MLS, were checked for viability via FACS on a FACScan (BD Biosciences) using propidium iodide as a live/dead marker. Untreated wells then had 700 μL of cells removed and replaced with 700 μL fresh media followed by a further 1 mL of fresh media. […] Finally, at 72 h, all wells for which an LD80-90 was achieved, as well as the untreated samples, were analyzed via FACS to determine GFP % enrichment.

Structure (SMILES)	p21 and BAX expression [1]	p53 expression [1]	cell cycle distribution G1 (A2780 cells; 24 hours) [%]	cell cycle distribution G2/M (A2780 cells; 24 hours) [%]	cell cycle distribution S (A2780 cells; 24 hours) [%]	cell cycle distribution G1 (A2780 cells; 48 hours) [%]	cell cycle distribution G2/M (A2780 cells; 48 hours) [%]	cell cycle distribution S (A2780 cells; 48 hours) [%]	increase in G2/M population (A2780 cells; 72 h incubation) [fold]	cell cycle distribution G1 (A2780 cells; 72 hours) [%]	cell cycle distribution G2/M (A2780 cells; 72 hours) [%]	cell cycle distribution S (A2780 cells; 72 hours) [%]	shChk2 log 2(RI) value [2]	shp53 log 2(RI) value [2]	RNAi signature classification against reference set [2]	changes in phase populations (A2780 cells; up to 72-hours incubation) [%]
[N]#[Os]1([Cl])([Cl])([Cl])[N]2C=CC=c3ccc4c(c32)[N]1C=CC=4 [Complex 2, OsN(1,10-phenanthroline)Cl3]	dose-dependent increase	higher p53 expression	61.0	11.1	27.9	61.8	19.1	19.0	~3	57.3	19.4	23.3	2.6	2.7	represented novel mechanisms of drug action	
[N]#[Os]1([Cl])([Cl])([Cl])[N]2C=CC(c3ccccc3)=c3ccc4c(c32)[N]1C=CC=4c1ccccc1 [Complex 4, OsN(4,7-diphenyl-1,10-phenanthroline)Cl3]	remained fairly constant	did not increase markedly	70.9	4.6	24.8	71.9	9.8	18.3		70.3	5.3	24.4	0.73	1.32	represented novel mechanisms of drug action	< 5
